Results reported in patent publication US20260055138A1, “CARRIER PEPTIDE FRAGMENT AND USE THEREOF” (TOAGOSEI CO., LTD., priority 2022, published 2026).
Primed or numbered codes have the meaning given here. [ ]: non-standard residue; d: D form. FAM = 5(6)-carboxyfluorescein; FAM″ = C-terminal FAM

Test system: HeLa cells
Experiment: Evaluation of cell membrane permeability by flow cytometry
Format: cell-based, human
Conditions: 10 μM, 20 hours, compared with Example 15
Experimental: As the eukaryotic cells, HeLa cells (established cell strain derived from a human cervical cancer cell) were used and the cell membrane permeability of the samples 1 to 15 was analyzed. In Examples 1 to 15, the prepared sample solutions 1 to 15 were used, respectively, and in Example 16, the FAM solution was used.
The HeLa cell was cultured in 10% fetal bovine serum (FBS)-containing Dulbecco's modified Eagle's medium (DMEM (Cat No. 044-29765, manufactured by FUJIFILM Wako Pure Chemical Corporation)), which is a culture medium.
The HeLa cell that adhered to a culture plate was cleaned with PBS and then, a 0.25%-trypsin/EDTA solution was added thereto, and incubation was performed for three minutes at 37° C. After the incubation, the aforementioned 10% FBS-containing DMEM was added to deactivate trypsin and then, five-minute centrifugal separation was performed at 150×g to precipitate the cells. After the supernatant generated by the centrifugal separation was removed, the 10% FBS-containing DMEM was added to the precipitate (cell pellet) to prepare a cell suspension of about 2×10^5 cells/mL. The cell suspension was added by 1 mL to a well of a commercially available six-hole (well) plate (manufactured by AGC TECHNO GLASS Co., Ltd.) so as to seed the cell (about 2×10^5 cells/well). In addition, the 2 mM sample solution 1 was diluted with the 10% FBS-containing DMEM to prepare the sample solution 1 in which the concentration of the sample 1 was 20 μM. Then, 1 mL of the 20 μM sample solution 1 was added to the well (that is, so that the concentration of the sample 1 became 10 μM and the DMSO concentration became 0.5% in the culture solution in the well). After that, the cell was incubated for 20 hours at 37° C. under a 5% CO2 condition.
After the 20-hour incubation, the culture supernatant was removed from the well and the cells in the well were cleaned twice with 1 mL of PBS. Next, 200 μL of the 0.25% trypsin/EDTA solution was added to the well and the incubation was performed for three minutes at 37° C. After the incubation, 400 μL of the 10% FBS-containing DMEM was added to the well to deactivate the trypsin. Subsequently, the cell suspension in the well was transferred to a tube and the cells were collected. After that, 600 μL of PBS was added further to the well to clean the well. Then, PBS in the well was transferred to the tube, so that the cells remaining in the well were collected in the tube. This tube was subjected to five-minute centrifugal separation at 4° C. under a condition of 210×g. After the centrifugal separation, the supernatant was removed and the precipitate (cell pellet) was suspended (cleaned) with 1 mL of PBS, which was followed by the centrifugal separation under the same condition as that described above. After this operation was repeated twice, the supernatant was removed and thus, the cells (cell pellet) cultured in a culture medium containing the sample 1 were obtained.
Regarding the obtained cells (cell pellet), the cell membrane permeability of the sample 1 was analyzed using a flow cytometer. As the flow cytometer, On-Chip Flowcytometer (manufactured by On-Chip Biotechnologies Co., LTD.) was used.
For such an analysis, the obtained cell pellet was suspended with 100 μL of on-chip T buffer to prepare a cell suspension for analysis.
Using the aforementioned flow cytometer, gating based on forward scatter (FSC) and side scatter (SSC) was performed to set a gate about a cell group to be analyzed, and the fluorescence intensity was measured about the cell group in this gate. Note that the analysis was performed so that the cell group contained at least 10000 cells. The fluorescence intensity was measured using a fluorescence detector FL2 of the flow cytometer (optimum detection wavelength around 543 nm) capable of detecting the fluorescence wavelength of FAM. […]

Row | Substance | value of MFI, comparison in words
1 | Ac-KKRTLRKSNRKkR-FAM [Example 12] | high in particular

Same assay, conditions: construct (additive) 10 μM, 0.5% DMSO in culture solution, 20 hours incubation at 37° C., FAM fluorescence, detector FL2

Row | Substance | MFI (median fluorescence intensity)
2 | 5(6)-carboxyfluorescein [Example 16, reference compound] | 10.6
3 | Ac-KKRTLRKSNRKKR-FAM [Example 7] (Ac-KKRTLR[dK]SNRKKR-{FAM}) | 16.9
4 | Ac-KKRTLRKSNRKKR-FAM [Example 15] (Ac-KKRTLRKSNRKKR-{FAM″}) [reference compound] | 13.0
5 | Ac-KKRTLRKSNRKKr-FAM (Ac-KKRTLRKSNRKK[dR]-{FAM″}) [Example 13] | 15.2
6 | Ac-KKRTLRKSNRKkR-FAM [Example 12] | 33.8
7 | Ac-KKRTLRKSNRkKR-FAM (Ac-KKRTLRKSNR[dK]KR-{FAM″}) [Example 11] | 17.4
8 | Ac-KKRTLRKSNrKKR-FAM (Ac-KKRTLRKSN[dR]KKR-{FAM″}) [Example 10] | 15.5
9 | Ac-KKRTLRKSnRKKR-FAM (Ac-KKRTLRKS[dN]RKKR-{FAM″}) [Example 9] | 15.6
10 | Ac-KKRTLRKsNRKKR-FAM (Ac-KKRTLRK[dS]NRKKR-{FAM″}) [Example 8] | 14.3
11 | Ac-KKRTLrKSNRKKR-FAM [Example 6] | 17.5
12 | Ac-KKRTlRKSNRKKR-FAM (Ac-KKRT[dL]RKSNRKKR-{FAM″}) [Example 5] | 16.5
13 | Ac-KKRtLRKSNRKKR-FAM (Ac-KKR[dT]LRKSNRKKR-{FAM″}) [Example 4] | 15.9
14 | Ac-KKrTLRKSNRKKR-FAM (Ac-KK[dR]TLRKSNRKKR-{FAM″}) [Example 3] | 13.9
15 | Ac-KkRTLRKSNRKKR-FAM (Ac-K[dK]RTLRKSNRKKR-{FAM″}) [Example 2] | 14.1
16 | Ac-kKRTLRKSNRKKR-FAM (Ac-[dK]KRTLRKSNRKKR-{FAM″}) [Example 1] | 13.9
17 | Ac-kkrtlrksnrkkr-FAM (Ac-[dK][dK][dR][dT][dL][dR][dK][dS][dN][dR][dK][dK][dR]-{FAM″}) [Example 14] | 16.1
